Values after ≈ are worked out from the molar mass of the structure shown.
Tests used:
[1] = cited from earlier work; for water solubility compared with puerarin: literature
[2] = literature; cited from earlier work
[3] = tested on: human breast cancer cell strain MDA-MB-231; assay: MDA-MB-231 cell toxicity test (MTT); format: cell-based; details: 48 h; for OD value: MTT 490 nm
Experimental: MDA-MB-231 cells were cultured in an incubator at 37° C. with 5% CO2 saturated humidity in the RPMI-1640 complete culture medium containing inactivated fetal calf serum with volume fraction of 10%, 100 U penicillin and streptomycin. Take MDA-MB-231 cells in logarithmic phase (primary culture bottle) and discard the culture solution. […] Prepare the suspended solution of cells and adjust the cell concentration with appropriate amount of complete culture medium to 3×10^4/mL. Fed the cells into a tissue culture plate 96, with cell suspended liquid of 180 μL in each case, and put the culture plate into a cell incubator (37° C., 5% CO2) for conventional culture. When cells grew to 50%-70%, add drug liquid of different concentration. […] For DMSO solvent control group, add 20 μL of PBS containing […] and for the blank group, add 20 μL of PBS. For each drug concentration, 6 complex cases were provided. Put back the culture plate into the cell incubator, after 48 h, add 20 μL MTT (5 mg/mL) solution and continue to incubate it in the incubator for 4 h, then remove the supernatant and dry it with tissue, add 200 μL DMSO into each case and vibrate it in the rocker without light for 15 min, to allow the crystal to fully dissolve. Determine the light absorption at 490 nm with a fully automatic ELISA instrument, and calculate the average suppression rate, suppression rate (%)=(control group A490−test group A490)/control group A490), the experiment was repeated three times. Relevant analysis and Student t tests in Microsoft Excel 2003 were used, and data are presented in X±SD.

physchem = details: 25° C.
in vivo = details: in vivo, 50 mg/kg
Experimental: Embodiment 5: Metabokinetic Experiment of monofructosyl-β(2,6)-Puerarin in Blood
In HPLC analysis, DIONEX was used, with chromatographic column as Discovery HS C18 ([…], 5 μm), feeding specimen volume 20 μL, column temperature 30° C., the detector was UVD170U, with detection wavelength of 254 nm, flowing phase: A, water, B, chromatographic class methanol, A:B=80:20, at flow rate of 1 mL/min.
Sprague-Dawley mice (SD mice), with weight of 180-220 g, male and female in half, provided by Medical Experiment Center of Nantong University, with production permit No.: SCXK (Su) 20080010.
SD mice were randomly divided into 2 groups of 5 each, fasting for 12 hours before experiment. Puerarin and monofructosyl-β(2,6)-puerarin were respectively dissolved in 20% 1,2-PG normal saline, and injected into mouse caudal vein at a dosage of 50 mg/kg. After injection, at t=0 min, 4 min, 7 min, 17 min, 40 min, 60 min, 120 min and 180 min, 0.5 mL of blood was taken from orbit and put into centrifugal tubes treated with liquaemin, then it was immediately separated by centrifuging at 3000 rpm for 15 min, to separate out plasma for analysis.
Plasma of 100 μL was precisely taken and put into test tube, and 400 μL of methanol sedimented protein was added, they were mixed on vortex mixer for 5 min, then centrifuged at 10000 rpm for 10 min, and the supernatant was used for HPLC analysis.
The plasma concentration of the puerarin and monofructosyl-β(2,6)-puerarin specimens prepared as per 3.2 was obtained by calculation with external reference method. The data obtained were analyzed using pharmacokinetics statistic software.

myocardio ischemia mice [4] = assay: T wave amplitude variation in pituitrin acute myocardial ischemia model; format: in vivo, Sprague-Dawley mice (SD mice); details: 50 mg/kg
Excerpt: (§1) Embodiment 6: […] Pituitrin injection was purchased from Nanjing Xinbai Pharmaceutical Co., Ltd., normal saline injection from Nanjing Xiaoying Pharmaceutical Co., Ltd., and DMSO, PG, and anhydrous ethanol were of chromatographic class. […] The data were presented with, and tested with t. P<0.05 indicates substantial difference, P<0.01 indicates very substantial difference; and P<0.001 indicates extremely substantial difference.

[5] = tested on: human chronmyelogenors leukemia cell strain K562; assay: K562 cell toxicity test (MTT); format: cell-based; details: 48 h; for OD value: MTT 490 nm
Experimental: K-562 cells were cultured in an incubator at 37° C. with 5% CO2 saturated humidity in the RPMI-1640 complete culture medium containing inactivated calf serum with volume fraction of 10%, 100 U penicillin and streptomycin. […] For each drug concentration, 6 complex cases were provided. Put back the culture plate into the cell incubator, after 48 h, add 20 μL MTT (5 mg/mL) solution and continue to incubate it in the incubator for 4 h, then each case was added with triple liquid 100 μL, put it overnight to allow the crystal to fully dissolve. Vibrate it with oscillator for 20 min and determine the light absorption at 490 nm with a fully automatic ELISA instrument, and calculate the average suppression rate, suppression rate (%)=(control group A490−test group A490)/control group A490), the experiment was repeated three times. Relevant analysis and Student t tests in Microsoft Excel 2003 were used, and data are presented in X±SD.

myocardio ischemia mice [6] = assay: Heart rate in pituitrin acute myocardial ischemia model; format: in vivo, Sprague-Dawley mice (SD mice); details: 50 mg/kg
Excerpt: as §1

[7] = Solubility determination at 25° C.
[8] = tested on: aorta vascular smooth muscle; details: compared with puerarin, literature; cited from earlier work
[9] = both, Sprague-Dawley, mouse, iv

Molecule: O=c1c(-c2ccc(O)cc2)coc2c([C@@H]3O[C@H](CO)[C@@H](O)[C@H](O)[C@H]3O)c(O[C@@H]3O[C@H](CO)[C@@H](O)[C@H](O)[C@H]3O)ccc12 [7-O-glucoside puerarin]
- water solubility compared with puerarin [1]: 18 times
- mean retaining time (MRT) relative to puerarin [2]: 2.8 times
- plasma half-life (t1/2) relative to puerarin [2]: 2 times

Molecule: O=c1c(-c2ccc(O)cc2)coc2c(C3OC(CO)C(O)C(O)C3O)c(OC3OC(COC4OC(CO)C(O)C(O)C4O)C(O)C(O)C3O)ccc12 (stereo not drawn) [7-O-isomaltoside puerarin]
- water solubility compared with puerarin [1]: 100 times

Molecule: O=c1c(-c2ccc(O)cc2)coc2c([C@@H]3O[C@H](CO)[C@@H](O)[C@H](O)[C@H]3O)c(O)ccc12 [Puerarin, 7,4′-dyhydroxy-8-β-D-glucosyl isoflavone]
- Average suppression rate ([3]; 0.5 μmol/L): 10.68%
- OD value ([3]; 0.5 μmol/L): 0.632 ± 0.056
- Average suppression rate ([3]; 1 μmol/L): 11.67%
- OD value ([3]; 1 μmol/L): 0.624 ± 0.053
- Average suppression rate ([3]; 5 μmol/L): 12.43%
- OD value ([3]; 5 μmol/L): 0.619 ± 0.090
- Average suppression rate ([3]; 10 μmol/L): 13.77%
- OD value ([3]; 10 μmol/L): 0.610 ± 0.039
- Average suppression rate ([3]; 50 μmol/L): 24.92%
- OD value ([3]; 50 μmol/L): 0.531 ± 0.066
- Average suppression rate ([3]; 100 μmol/L): 33.06%
- OD value ([3]; 100 μmol/L): 0.473 ± 0.034
- Average suppression rate ([3]; 150 μmol/L): 47.47%
- OD value ([3]; 150 μmol/L): 0.372 ± 0.037
- Average suppression rate ([3]; 200 μmol/L): 61.91%
- OD value ([3]; 200 μmol/L): 0.619 ± 0.042
- solubility (physchem): 5200 µg/mL (≈ 12.5 mM)
- solubility in water ([1]; background statement): 6240 µg/mL (≈ 15 mM)
- MRT inf (in vivo; [9]): 20.6 min
- MRT last (in vivo; [9]): 19.7 min
- clearance (in vivo; [9]): 13 ± 3 mL/min/kg
- half-life (in vivo; [9]): 17 ± 3.09 min
- AUC (0-t) (in vivo): 4096.192 ± 973.839 mg/Lxmin
- T wave amplitude variation (myocardio ischemia mice [4]; 15 s after Pit): 0.082 ± 0.052 mv
- T wave amplitude variation (myocardio ischemia mice [4]; 30 s after Pit): 0.114 ± 0.096 mv
- T wave amplitude variation (myocardio ischemia mice [4]; 1 min after Pit): 0.118 ± 0.086 mv
- T wave amplitude variation (myocardio ischemia mice [4]; 2 min after Pit): 0.132 ± 0.096 mv
- T wave amplitude variation (myocardio ischemia mice [4]; 5 min after Pit): 0.118 ± 0.075 mv
- T wave amplitude variation (myocardio ischemia mice [4]; 10 min after Pit): 0.074 ± 0.061 mv
- Average suppression rate ([5]; 1 μmol/L): 10.65%
- OD value ([5]; 1 μmol/L): 0.917 ± 0.031
- Average suppression rate ([5]; 5 μmol/L): 7.52%
- OD value ([5]; 5 μmol/L): 0.949 ± 0.023
- Average suppression rate ([5]; 10 μmol/L): 9.46%
- OD value ([5]; 10 μmol/L): 0.929 ± 0.030
- Average suppression rate ([5]; 20 μmol/L): 10.68%
- OD value ([5]; 20 μmol/L): 0.916 ± 0.056
- Average suppression rate ([5]; 50 μmol/L): 22.73%
- OD value ([5]; 50 μmol/L): 0.793 ± 0.083
- Average suppression rate ([5]; 100 μmol/L): 30.89%
- OD value ([5]; 100 μmol/L): 0.709 ± 0.038
- Average suppression rate ([5]; 150 μmol/L): 36.65%
- OD value ([5]; 150 μmol/L): 0.650 ± 0.039
- Average suppression rate ([5]; 200 μmol/L): 54.19%
- OD value ([5]; 200 μmol/L): 0.470 ± 0.027
- Heart rate (myocardio ischemia mice [6]; 5 s): 512 ± 36 time · min^−1
- Heart rate (myocardio ischemia mice [6]; 10 s): 469 ± 32 time · min^−1
- Heart rate (myocardio ischemia mice [6]; 15 s): 437 ± 63 time · min^−1
- Heart rate (myocardio ischemia mice [6]; 30 s): 411 ± 69 time · min^−1
- Heart rate (myocardio ischemia mice [6]; 1 min): 379 ± 85 time · min^−1
- Heart rate (myocardio ischemia mice [6]; 2 min): 379 ± 72 time · min^−1
- Heart rate (myocardio ischemia mice [6]; 5 min): 384 ± 53 time · min^−1
- Heart rate (myocardio ischemia mice [6]; 10 min): 434 ± 51 time · min^−1
- Heart rate (myocardio ischemia mice [6]; Normal): 484 ± 33 time · min^−1

Molecule: O=c1c(-c2ccc(O)cc2)coc2c([C@@H]3O[C@H](CO[C@]4(CO)O[C@H](CO[C@]5(CO)O[C@H](CO)[C@@H](O)[C@@H]5O)[C@@H](O)[C@@H]4O)[C@@H](O)[C@H](O)[C@H]3O)c(O)ccc12 [bifructosyl-β(2,6)-puerarin]
- solubility [7]: 280800 µg/mL (≈ 379 mM)
- solubility relative to puerarin ([7]; puerarin 5.2 g/L): 54 times

Molecule: O=c1c(-c2ccc(O)cc2)coc2c([C@@H]3O[C@H](CO[C@H]4O[C@H](CO)[C@@H](O)[C@H](O)[C@H]4O)[C@@H](O)[C@H](O)[C@H]3O)c(O)ccc12 [glucosyl-α-(1, 6)-puerarin]
- water solubility compared with puerarin [1]: 14 times

Molecule: O=c1c(-c2ccc(O)cc2)coc2c([C@@H]3O[C@H](CO[C@H]4O[C@H](CO)[C@@H](O[C@H]5O[C@H](CO)[C@@H](O)[C@H](O)[C@H]5O)[C@H](O)[C@H]4O)[C@@H](O)[C@H](O)[C@H]3O)c(O)ccc12 [maltosyl-α-(1,6)-puerarin]
- water solubility compared with puerarin [1]: 168 times

Molecule: semi-emulsified glycosyl-α-(1,4)-puerarin
- vasodilatation effect [8]: could produce better vasodilatation effect than puerarin

From US8598128B2, “Fructosylated puerarin, and preparation method and use thereof” (priority 2010, dated 2013)
